Test results reported in ChEMBL document CHEMBL1201862, “PubChem BioAssay data set” (2004).
Active and inactive are the calls of the source.

Tests used:
[1] = target: T1, Oxysterols receptor LXR-beta (Homo sapiens, UniProt P55055); type: functional, cell-based;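 note: agonist activity at LXR measured by a cell-based luminescence readout across a dose range, run as a counterscreen for daf-12 agonists; HEK293 cells with Gal4-LXR fusion and GAL4-driven luciferase reporter; potency for activation of Gal4-LXR reporter so compounds are agonists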
T1 sequence (P55055 whole entry): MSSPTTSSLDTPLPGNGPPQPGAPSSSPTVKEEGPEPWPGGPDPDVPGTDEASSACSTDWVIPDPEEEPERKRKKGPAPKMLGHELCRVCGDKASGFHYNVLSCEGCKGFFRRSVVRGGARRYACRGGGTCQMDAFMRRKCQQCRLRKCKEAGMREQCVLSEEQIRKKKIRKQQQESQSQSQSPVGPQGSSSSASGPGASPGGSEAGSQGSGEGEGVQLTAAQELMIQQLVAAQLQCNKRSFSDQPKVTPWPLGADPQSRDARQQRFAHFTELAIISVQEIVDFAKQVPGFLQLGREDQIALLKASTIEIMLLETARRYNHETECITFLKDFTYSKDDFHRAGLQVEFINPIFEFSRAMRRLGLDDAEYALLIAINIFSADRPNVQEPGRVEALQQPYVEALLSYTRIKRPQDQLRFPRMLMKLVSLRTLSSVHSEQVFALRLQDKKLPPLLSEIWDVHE

[2] = target: Low molecular weight phosphotyrosine protein phosphatase (Homo sapiens, UniProt P24666); type: functional; conditions: read-out: IC50_Mean;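 note: Dose-response confirmation assay measuring inhibition of LMPTP enzyme activity by fluorescence intensity read-out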
[3] = target: T2, Methionyl-tRNA synthetase, putative (Trypanosoma brucei brucei, UniProt Q38C91); type: functional, Trypanosoma brucei brucei strain 927/4 GUTat10.1
T2 sequence (Q38C91 whole entry): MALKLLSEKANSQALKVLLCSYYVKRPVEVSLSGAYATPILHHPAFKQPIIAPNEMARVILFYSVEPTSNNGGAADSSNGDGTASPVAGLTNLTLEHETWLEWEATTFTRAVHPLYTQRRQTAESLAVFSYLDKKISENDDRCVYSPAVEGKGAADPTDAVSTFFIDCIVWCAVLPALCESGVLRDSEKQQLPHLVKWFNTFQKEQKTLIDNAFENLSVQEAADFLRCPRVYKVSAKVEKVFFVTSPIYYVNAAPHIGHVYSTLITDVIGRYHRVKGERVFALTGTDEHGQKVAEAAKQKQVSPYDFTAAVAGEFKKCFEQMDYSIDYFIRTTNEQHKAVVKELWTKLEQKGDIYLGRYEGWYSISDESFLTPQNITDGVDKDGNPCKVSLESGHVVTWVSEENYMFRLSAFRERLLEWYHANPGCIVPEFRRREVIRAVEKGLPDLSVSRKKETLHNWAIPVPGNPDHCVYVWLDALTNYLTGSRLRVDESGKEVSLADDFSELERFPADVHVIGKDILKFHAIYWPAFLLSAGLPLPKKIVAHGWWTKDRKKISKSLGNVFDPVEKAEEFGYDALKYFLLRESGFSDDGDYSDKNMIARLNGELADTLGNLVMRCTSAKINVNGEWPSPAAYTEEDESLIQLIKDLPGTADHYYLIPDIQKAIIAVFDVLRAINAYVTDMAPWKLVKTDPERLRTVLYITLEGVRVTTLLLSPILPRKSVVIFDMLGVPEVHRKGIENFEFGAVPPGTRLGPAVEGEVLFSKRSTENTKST

[4] = Counterscreen for inhibitors of Trypanosoma brucei methionyl tRNA synthetase (MetRS): Luminescence-based cell-based high throughput dose response assay to identify compounds that are cytotoxic to Jurkat human T lymphocyte cells.; type: functional
[5] = target: T2, Methionyl-tRNA synthetase, putative; type: functional, Trypanosoma brucei brucei strain 927/4 GUTat10.1; remark: listed apart in the source
CAAX prenyl protease 2 = target: T3, CAAX prenyl protease 2 (Homo sapiens, UniProt Q9Y256); assay: human Rce1 protease inhibitors, dose response, biochemical, yeast membranes, quenched-peptide fluorescence, cherry-pick (AID 588849)
T3 sequence (Q9Y256 whole entry): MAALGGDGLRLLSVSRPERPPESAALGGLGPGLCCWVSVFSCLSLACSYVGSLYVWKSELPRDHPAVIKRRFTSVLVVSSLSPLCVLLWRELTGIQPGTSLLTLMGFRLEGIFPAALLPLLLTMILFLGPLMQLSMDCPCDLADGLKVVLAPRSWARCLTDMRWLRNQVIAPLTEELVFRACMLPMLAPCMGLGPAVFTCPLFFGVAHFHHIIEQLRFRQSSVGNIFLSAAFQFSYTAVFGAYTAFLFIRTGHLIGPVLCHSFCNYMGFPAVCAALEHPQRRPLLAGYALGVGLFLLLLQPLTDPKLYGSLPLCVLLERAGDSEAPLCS

[6] = target: T4, Corticotropin-releasing factor receptor 2/Corticotropin-releasing factor-binding protein (Homo sapiens, UniProt P24387+Q13324); assay: Dose Response confirmation of uHTS hits for small molecule antagonists of the CRF-binding protein and CRF-R2 receptor complex.; type: functional; conditions: read-out: IC50_Mean
T4 sequence (Q13324 whole entry): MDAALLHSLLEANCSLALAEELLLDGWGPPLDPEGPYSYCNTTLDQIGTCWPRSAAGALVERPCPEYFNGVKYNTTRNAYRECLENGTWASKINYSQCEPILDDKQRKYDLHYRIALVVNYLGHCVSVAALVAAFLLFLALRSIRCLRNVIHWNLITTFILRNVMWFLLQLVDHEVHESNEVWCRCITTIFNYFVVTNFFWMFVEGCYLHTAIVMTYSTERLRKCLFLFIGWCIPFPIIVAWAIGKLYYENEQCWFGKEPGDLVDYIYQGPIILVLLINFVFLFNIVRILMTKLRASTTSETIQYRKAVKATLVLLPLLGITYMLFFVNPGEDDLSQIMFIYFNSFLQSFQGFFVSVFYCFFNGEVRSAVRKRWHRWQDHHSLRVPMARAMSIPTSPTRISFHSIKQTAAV
T4 sequence (P24387 whole entry): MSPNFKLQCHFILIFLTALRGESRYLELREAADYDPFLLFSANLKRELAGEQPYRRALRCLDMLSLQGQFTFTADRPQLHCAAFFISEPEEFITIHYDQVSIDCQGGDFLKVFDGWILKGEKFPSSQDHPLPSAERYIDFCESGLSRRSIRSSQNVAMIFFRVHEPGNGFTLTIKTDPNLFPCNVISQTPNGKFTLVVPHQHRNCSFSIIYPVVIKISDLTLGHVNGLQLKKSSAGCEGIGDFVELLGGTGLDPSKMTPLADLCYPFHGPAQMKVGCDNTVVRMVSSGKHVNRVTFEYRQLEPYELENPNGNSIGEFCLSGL

[7] = target: T4, Corticotropin-releasing factor receptor 2/Corticotropin-releasing factor-binding protein; assay: activators of CRF receptor 2 with binding protein – uHTS hits, confirmation (AID 602473); type: functional; conditions: read-out: EC50_Mean
[8] = CRF-BP/CRF-R2 complex antagonists, dose response, cell-based, uHTS hits, 384-well (AID 651639); type: functional, Homo sapiens; conditions: read-out: IC50_Mean
Cytochrome P450 2C9 = Cytochrome P450 2C9 (Homo sapiens, UniProt P11712)
Bcl-2-related protein A1 = target: T5, Bcl-2-related protein A1 (Mus musculus, UniProt Q07440); type: functional;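 note: confirmatory dose–response counterscreen on Bfl-1, used to check hits from a UBC13 polyubiquitin inhibitor campaign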
T5 sequence (Q07440 whole entry): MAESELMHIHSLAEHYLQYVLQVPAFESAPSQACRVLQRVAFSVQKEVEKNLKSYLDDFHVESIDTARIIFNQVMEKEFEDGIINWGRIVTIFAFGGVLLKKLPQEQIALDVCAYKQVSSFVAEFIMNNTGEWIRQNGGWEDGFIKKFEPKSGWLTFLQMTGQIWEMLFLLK

[9] = target: T6, Ubiquitin-conjugating enzyme E2 N (Homo sapiens, UniProt P61088); type: functional
T6 sequence (P61088 whole entry): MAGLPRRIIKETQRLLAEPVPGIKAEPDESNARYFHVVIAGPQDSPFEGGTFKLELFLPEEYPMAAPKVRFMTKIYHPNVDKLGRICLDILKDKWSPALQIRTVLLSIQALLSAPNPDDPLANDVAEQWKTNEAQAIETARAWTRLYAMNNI

[10] = target: T6, Ubiquitin-conjugating enzyme E2 N; type: functional; remark: listed apart in the source
[11] = target: DNA repair protein RAD52 homolog (Homo sapiens, UniProt P43351); type: functional, biochemical
Beta-galactosidase = Beta-galactosidase (Escherichia coli, UniProt Q8VNN2); assay: Dose response counterscreen for EBI2 assay utilizing the enzyme, b-galactosidase.; type: functional
Beta-galactosidase, sequence (Q8VNN2 whole entry): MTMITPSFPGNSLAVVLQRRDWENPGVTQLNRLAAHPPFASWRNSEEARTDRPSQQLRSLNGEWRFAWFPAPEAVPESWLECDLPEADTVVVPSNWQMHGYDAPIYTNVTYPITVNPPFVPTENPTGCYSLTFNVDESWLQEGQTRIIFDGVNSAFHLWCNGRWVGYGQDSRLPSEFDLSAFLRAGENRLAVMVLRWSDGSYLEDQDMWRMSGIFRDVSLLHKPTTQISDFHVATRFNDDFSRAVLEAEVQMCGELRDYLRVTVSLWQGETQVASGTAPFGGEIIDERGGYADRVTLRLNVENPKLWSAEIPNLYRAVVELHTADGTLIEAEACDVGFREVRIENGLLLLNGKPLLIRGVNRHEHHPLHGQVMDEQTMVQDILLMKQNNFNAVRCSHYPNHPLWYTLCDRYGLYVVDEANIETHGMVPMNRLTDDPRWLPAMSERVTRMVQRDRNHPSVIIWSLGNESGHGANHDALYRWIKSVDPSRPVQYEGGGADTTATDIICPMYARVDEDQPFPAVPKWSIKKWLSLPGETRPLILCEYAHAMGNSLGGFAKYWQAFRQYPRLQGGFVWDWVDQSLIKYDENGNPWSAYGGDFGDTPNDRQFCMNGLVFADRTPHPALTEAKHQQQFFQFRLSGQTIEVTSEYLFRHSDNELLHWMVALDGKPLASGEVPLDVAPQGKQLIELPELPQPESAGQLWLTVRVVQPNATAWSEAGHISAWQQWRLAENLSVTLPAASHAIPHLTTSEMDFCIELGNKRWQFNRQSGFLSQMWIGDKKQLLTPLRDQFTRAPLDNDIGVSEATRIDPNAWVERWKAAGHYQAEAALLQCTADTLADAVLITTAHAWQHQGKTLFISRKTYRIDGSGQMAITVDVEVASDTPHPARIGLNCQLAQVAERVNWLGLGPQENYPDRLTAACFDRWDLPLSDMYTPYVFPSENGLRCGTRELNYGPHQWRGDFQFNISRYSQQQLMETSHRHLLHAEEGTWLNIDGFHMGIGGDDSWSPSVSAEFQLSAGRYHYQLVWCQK

DNA repair protein RAD52 homolog, sequence (P43351 whole entry): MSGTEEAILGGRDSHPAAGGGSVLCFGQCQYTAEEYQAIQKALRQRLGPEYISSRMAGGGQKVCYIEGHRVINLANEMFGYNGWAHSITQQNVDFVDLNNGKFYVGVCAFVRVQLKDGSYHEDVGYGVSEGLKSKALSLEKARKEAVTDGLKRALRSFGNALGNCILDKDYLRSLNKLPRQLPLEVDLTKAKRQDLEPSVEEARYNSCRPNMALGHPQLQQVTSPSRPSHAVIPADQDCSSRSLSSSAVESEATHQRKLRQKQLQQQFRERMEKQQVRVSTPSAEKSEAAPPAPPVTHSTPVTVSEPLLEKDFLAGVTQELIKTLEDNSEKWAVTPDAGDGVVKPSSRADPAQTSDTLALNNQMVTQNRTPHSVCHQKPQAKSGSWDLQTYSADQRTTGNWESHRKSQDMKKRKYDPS
Cytochrome P450 2C9, sequence (P11712 whole entry): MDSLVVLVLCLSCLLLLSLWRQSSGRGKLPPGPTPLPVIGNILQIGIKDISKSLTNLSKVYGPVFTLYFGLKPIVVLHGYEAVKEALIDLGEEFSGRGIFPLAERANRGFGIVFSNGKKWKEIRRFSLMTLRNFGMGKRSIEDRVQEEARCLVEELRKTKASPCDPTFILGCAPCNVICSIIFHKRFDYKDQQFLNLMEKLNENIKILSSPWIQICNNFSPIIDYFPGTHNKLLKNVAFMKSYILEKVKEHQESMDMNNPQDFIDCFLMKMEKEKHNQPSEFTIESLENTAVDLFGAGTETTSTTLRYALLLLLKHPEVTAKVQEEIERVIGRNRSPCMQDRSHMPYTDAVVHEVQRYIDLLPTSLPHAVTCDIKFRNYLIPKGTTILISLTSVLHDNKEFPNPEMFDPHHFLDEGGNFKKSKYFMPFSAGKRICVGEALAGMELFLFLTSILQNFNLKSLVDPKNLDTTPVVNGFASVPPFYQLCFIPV
Low molecular weight phosphotyrosine protein phosphatase, sequence (P24666 whole entry): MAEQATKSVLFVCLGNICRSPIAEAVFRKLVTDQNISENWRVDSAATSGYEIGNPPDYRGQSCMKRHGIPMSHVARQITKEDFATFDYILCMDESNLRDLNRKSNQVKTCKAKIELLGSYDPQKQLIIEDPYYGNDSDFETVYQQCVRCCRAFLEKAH

Compound: CCS(=O)(=O)Nc1cc(-c2nc3cccnc3s2)ccc1C
- EC50 [1]: > 67.5 µM (inactive)

Compound: O=C(COC(=O)c1ccc(Br)o1)Nc1nc2c(F)c(F)c(F)cc2s1
- IC50 [2]: 12.7 µM (active)

Compound: C#Cc1ccc([C@@H]2C=C(C(=O)NCc3nc4ccccc4[nH]3)O[C@H](OCC)[C@H]2CCCO)cc1
- IC50 [3]: 22.3 µM (inactive)
- IC50 [4]: 35.8 µM (inactive)
- IC50 [5]: 8.94 µM (active)

Compound: CSc1nnc(-c2sc(-c3ccccc3)nc2C)n1C
- AC50 (CAAX prenyl protease 2): > 100 µM (inactive)
- IC50 [6]: < 0.368 µM (active)
- EC50 [7]: > 53 µM (inactive)
- IC50 [8]: > 20 µM (inactive)
- AC50 (Cytochrome P450 2C9): 0.0708 µM (inconclusive)

Compound: Cc1ccc(C(=O)NCCN2C3=NC[C@@H](Cc4ccccc4)N3C[C@H]2Cc2ccc(O)cc2)cc1Br
- IC50 (Bcl-2-related protein A1): > 20 µM (inactive)
- IC50 [9]: 19.4 µM (active)
- IC50 [10]: > 20 µM (inactive)
- AC50 [11]: 19.2 µM (active)

Compound: O=C(/C=C/c1ccccc1)N1CCN(c2ccccn2)CC1
- IC50 (Beta-galactosidase): > 80 µM (inactive)
